Source: PubChem BioAssay AID328 (DTP/NCI, 2004)
Several values for one entry are separate records, joined by “and”; a condition that tells them apart may be missing. Equal entries are not always repeated. Inconclusive results and toxic doses are left out.

Tested on: BDF1 mice, P388 leukemia ip, median survival T/C
Assay: NCI In Vivo Anticancer Drug Screen. Data for tumor model P388 Leukemia (intraperitoneal) in B6D2F1 (BDF1) mice
Conditions: endpoint: median survival time, higher = longer survival
Outline: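 T/C = treated-group survival ÷ vehicle-control survival; tumour transplanted into mice before dosing.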

[1] = dose: 50.0 mg/kg/injection, schedule: Q01DX009 (ip), vehicle: Klucel (hydroxypropylcellulose) (HPC)
[2] = dose: 100.0 mg/kg/injection, schedule: Q01DX009 (ip), vehicle: Klucel (hydroxypropylcellulose) (HPC)
[3] = dose: 50.0 mg/kg/injection, schedule: Q01DX009 (ip), vehicle: saline with Tween-80
[4] = dose: 100.0 mg/kg/injection, schedule: Q01DX009 (ip), vehicle: saline with Tween-80
[5] = dose: 200.0 mg/kg/injection, schedule: Q01DX009 (ip), vehicle: saline with Tween-80
[6] = dose: 100.0 mg/kg/injection, schedule: Q04DX003 (ip), vehicle: saline sonified
[7] = dose: 200.0 mg/kg/injection, schedule: Q04DX003 (ip), vehicle: saline sonified
[8] = dose: 400.0 mg/kg/injection, schedule: Q04DX003 (ip), vehicle: saline sonified
[9] = dose: 100.0 mg/kg/injection, schedule: Q04DX003 (ip), vehicle: saline with Tween-80
[10] = dose: 200.0 mg/kg/injection, schedule: Q04DX003 (ip), vehicle: saline with Tween-80
[11] = dose: 400.0 mg/kg/injection, schedule: Q04DX003 (ip), vehicle: saline with Tween-80
[12] = dose: 100.0 mg/kg/injection, schedule: Q01DX009 (ip), vehicle: saline
[13] = dose: 50.0 mg/kg/injection, schedule: Q01DX009 (ip), vehicle: saline sonified
[14] = dose: 100.0 mg/kg/injection, schedule: Q01DX009 (ip), vehicle: saline sonified

COc1cc([C@@H]2c3cc4c(c(OC)c3C[C@H]3COC(=O)[C@@H]32)OCO4)cc(OC)c1OC
T/C (dose: 12.5 mg/kg/injection, schedule: Q01DX001 (ip), vehicle: other): 105 % of control | T/C (dose: 12.5 mg/kg/injection, schedule: Q01DX010 (ip), vehicle: saline): 172 % of control | T/C (dose: 25.0 mg/kg/injection, schedule: Q01DX001 (ip), vehicle: saline): 100 % of control | T/C (dose: 25.0 mg/kg/injection, schedule: Q01DX010 (ip), vehicle: saline): 104 % of control | T/C (dose: 50.0 mg/kg/injection, schedule: Q01DX001 (ip), vehicle: saline): 113 % of control | T/C (dose: 50.0 mg/kg/injection, schedule: Q01DX010 (ip), vehicle: other): 90 % of control | T/C (dose: 100.0 mg/kg/injection, schedule: Q01DX001 (ip), vehicle: saline): 113 % of control | T/C (dose: 200.0 mg/kg/injection, schedule: Q01DX001 (ip), vehicle: saline): 118 % of control

COS(=O)(=O)Oc1ccc2ccccc2c1
T/C (dose: 25.0 mg/kg/injection, schedule: Q01DX009 (ip), vehicle: Klucel (hydroxypropylcellulose) (HPC)): 98 % of control | T/C [1]: 100 % of control | T/C [2]: 108 % of control

COC(=O)CC(CC(=O)c1ccccc1)c1ccccc1 (stereo unspecified)
T/C [3]: 95 % of control | T/C [4]: 97 % of control | T/C [5]: 87 % of control | T/C (dose: 400.0 mg/kg/injection, schedule: Q01DX009 (ip), vehicle: saline with Tween-80): 88 % of control

COc1ccc2cc1Oc1ccc(cc1)CC1=NCCc3cc(OC)c(OC)c(c31)Oc1cc3c(cc1OC)CCN(C)C3C2 (stereo unspecified)
T/C (dose: 67.0 mg/kg/injection, schedule: Q01DX010 (ip), vehicle: carboxymethylcellulose (CMC)): 86 % of control | T/C (dose: 100.0 mg/kg/injection, schedule: Q01DX010 (ip), vehicle: carboxymethylcellulose (CMC)): 86 % of control

O=C(OC1C2C=CC(C(O)O2)C1c1ccccc1)c1ccc(Cl)cc1 (stereo unspecified)
T/C (dose: 100.0 mg/kg/injection, schedule: Q01DX001 (ip), vehicle: saline with Tween-80): 94 % of control | T/C (dose: 200.0 mg/kg/injection, schedule: Q01DX001 (ip), vehicle: saline with Tween-80): 92 % of control

COc1cc(/C=N/OCc2cc3c(cc2Cl)OCO3)cc(OC)c1OC
T/C [6]: 95 % of control | T/C [7]: 90 % of control | T/C [8]: 104 % of control

O=c1cc(-c2ccccc2)ss1
T/C (dose: 6.25 mg/kg/injection, schedule: Q01DX009 (ip), vehicle: saline with Tween-80): 98 % of control | T/C (dose: 12.5 mg/kg/injection, schedule: Q01DX009 (ip), vehicle: saline with Tween-80): 102 % of control and 122 % of control | T/C [3]: 110 % of control and 121 % of control | T/C (dose: 50.0 mg/kg/injection, schedule: Q04DX003 (ip), vehicle: saline with Tween-80): 89 % of control | T/C [4]: 121 % of control and 122 % of control | T/C (dose: 100.0 mg/kg/injection, schedule: Q04DX003 (ip), vehicle: other): 105 % of control | T/C [9]: 99 % of control and 100 % of control | T/C (dose: 178.0 mg/kg/injection, schedule: Q04DX003 (ip), vehicle: other): 111 % of control | T/C [5]: 110 % of control | T/C (dose: 200.0 mg/kg/injection, schedule: Q04DX003 (ip), vehicle: other): 100 % of control | T/C [10]: 111 % of control | T/C (dose: 266.0 mg/kg/injection, schedule: Q04DX003 (ip), vehicle: other): 111 % of control | T/C [11]: 100 % of control

COc1cccc(CCNC(=O)CC#N)c1OC
T/C [3]: 105 % of control | T/C [4]: 105 % of control | T/C [9]: 100 % of control | T/C [5]: 95 % of control | T/C [10]: 100 % of control | T/C [11]: 100 % of control

CC(/C=N/N=C(N)N)=N/N=C(N)N
T/C [12]: 150 % of control | T/C (dose: 150.0 mg/kg/injection, schedule: Q01DX009 (ip), vehicle: saline with Tween-80): 90 % of control

CCOC(=O)C1(c2ccccc2)CCCN(C)CC1 (stereo unspecified)
T/C (dose: 100.0 mg/kg/injection, schedule: Q04DX003 (ip), vehicle: saline): 94 % of control

O=C(/C=C/c1ccc(OCc2ccccc2)cc1)c1ccccc1F
T/C [3]: 96 % of control | T/C [4]: 100 % of control | T/C [5]: 96 % of control

CCN(CC)CCNc1ccc([N+](=O)[O-])c2sc3ccccc3c(=O)c12
T/C [13]: 177 % of control | T/C [14]: 95 % of control

O=P(Cc1ccccc1)(C(O)c1ccccc1)C(O)c1ccccc1 (stereo unspecified)
T/C (dose: 50.0 mg/kg/injection, schedule: Q04DX003 (ip), vehicle: Klucel (hydroxypropylcellulose) (HPC)): 100 % of control | T/C (dose: 100.0 mg/kg/injection, schedule: Q04DX003 (ip), vehicle: Klucel (hydroxypropylcellulose) (HPC)): 100 % of control | T/C (dose: 200.0 mg/kg/injection, schedule: Q04DX003 (ip), vehicle: Klucel (hydroxypropylcellulose) (HPC)): 100 % of control

O=[N+]([O-])/C=C\c1cc2c3c(c1)CCCN3CCC2
T/C (dose: 3.13 mg/kg/injection, schedule: Q01DX001 (ip), vehicle: saline with Tween-80): 100 % of control | T/C (dose: 6.25 mg/kg/injection, schedule: Q01DX001 (ip), vehicle: saline with Tween-80): 100 % of control | T/C (dose: 12.5 mg/kg/injection, schedule: Q01DX001 (ip), vehicle: saline with Tween-80): 104 % of control

O=C1Nc2c(Cl)cc(Cl)cc2C12Nc1ccccc1S2 (stereo unspecified)
T/C [3]: 112 % of control | T/C [4]: 96 % of control | T/C [5]: 107 % of control

COc1ccc(C2NC(=O)NC2=O)cc1OC (stereo unspecified)
T/C (dose: 50.0 mg/kg/injection, schedule: Q01DX001 (ip), vehicle: saline sonified): 100 % of control | T/C (dose: 100.0 mg/kg/injection, schedule: Q01DX001 (ip), vehicle: saline sonified): 100 % of control | T/C (dose: 200.0 mg/kg/injection, schedule: Q01DX001 (ip), vehicle: saline sonified): 100 % of control

CC(C=C1CCCCC1)C(=O)O (stereo unspecified)
T/C [12]: 113 % of control | T/C (dose: 200.0 mg/kg/injection, schedule: Q01DX009 (ip), vehicle: saline): 109 % of control | T/C (dose: 400.0 mg/kg/injection, schedule: Q01DX009 (ip), vehicle: saline): 118 % of control

CC[C@@H]1CN(C)[C@H]2Cc3c([nH]c4ccccc34)C(=O)C[C@H]1C2C(=O)OC (stereo partly specified)
T/C [14]: 90 % of control | T/C [6]: 100 % of control | T/C (dose: 200.0 mg/kg/injection, schedule: Q01DX009 (ip), vehicle: saline sonified): 115 % of control | T/C [7]: 100 % of control | T/C (dose: 400.0 mg/kg/injection, schedule: Q01DX009 (ip), vehicle: saline sonified): 100 % of control | T/C [8]: 90 % of control

O=C(c1ccccc1Cl)c1cccc2ccccc12
T/C (dose: 22.0 mg/kg/injection, schedule: Q01DX009 (ip), vehicle: Klucel (hydroxypropylcellulose) (HPC)): 100 % of control | T/C (dose: 35.0 mg/kg/injection, schedule: Q01DX009 (ip), vehicle: Klucel (hydroxypropylcellulose) (HPC)): 100 % of control | T/C (dose: 175.0 mg/kg/injection, schedule: Q04DX003 (ip), vehicle: Klucel (hydroxypropylcellulose) (HPC)): 100 % of control | T/C (dose: 400.0 mg/kg/injection, schedule: Q04DX003 (ip), vehicle: Klucel (hydroxypropylcellulose) (HPC)): 104 % of control | T/C (dose: 600.0 mg/kg/injection, schedule: Q04DX003 (ip), vehicle: Klucel (hydroxypropylcellulose) (HPC)): 104 % of control

CCCCCCCCCCCCCCCCNc1cccc2ccccc12
T/C [6]: 86 % of control | T/C [7]: 104 % of control | T/C [8]: 95 % of control

O=S(=O)(c1cccc(C(F)(F)F)c1)N1c2ccccc2-n2cccc2C1c1cccnc1 (stereo unspecified)
T/C [1]: 94 % of control | T/C [2]: 103 % of control | T/C (dose: 200.0 mg/kg/injection, schedule: Q01DX009 (ip), vehicle: Klucel (hydroxypropylcellulose) (HPC)): 96 % of control

CC1=C/C(=C/c2ccccc2)CC(C)(C)C1 (tested in a mixture with another compound)
T/C (dose: 25.0 mg/kg/injection, schedule: Q01DX009 (ip), vehicle: saline sonified): 104 % of control | T/C [13]: 100 % of control | T/C [14]: 100 % of control

CCOC(=O)CNCc1ccc(C)cc1
T/C (dose: 50.0 mg/kg/injection, schedule: Q01DX009 (ip), vehicle: water): 100 % of control | T/C (dose: 100.0 mg/kg/injection, schedule: Q01DX009 (ip), vehicle: water): 99 % of control | T/C (dose: 100.0 mg/kg/injection, schedule: Q04DX003 (ip), vehicle: water): 91 % of control | T/C (dose: 200.0 mg/kg/injection, schedule: Q01DX009 (ip), vehicle: water): 103 % of control | T/C (dose: 200.0 mg/kg/injection, schedule: Q04DX003 (ip), vehicle: water): 93 % of control | T/C (dose: 400.0 mg/kg/injection, schedule: Q01DX009 (ip), vehicle: water): 108 % of control | T/C (dose: 400.0 mg/kg/injection, schedule: Q04DX003 (ip), vehicle: water): 100 % of control
